{
  "source": "a melting point compilation (Tetko et al.; mined from patent text by program, amines drawn as free bases though some values may be those of a salt)",
  "data": [
    {"units": {"melting point": "°C"}, "values": [
      {"smiles": "COC(=O)C1=C(C)NC(C)=C(C(=O)OC(C)C)C1c1cc([N+](=O)[O-])ccc1Cl", "note": "(configuration not stated)", "melting point": 163},
      {"smiles": "O=C1Cc2cc3ccccc3nc2N1", "melting point": 261},
      {"smiles": "COc1ccc(S(=O)(=O)C2(C(=O)NO)CCN(CCCc3ccccc3)CC2)cc1", "melting point": 143},
      {"smiles": "COc1ccc2cc([C@H](C)C(=O)OCC(=O)OC(C)(C)C)ccc2c1", "melting point": "85 to 86"},
      {"smiles": "N#CCC1=C(n2nc(-c3c(-c4ccccc4)nn4ccccc34)ccc2=O)CCCC1", "melting point": "74 to 76"},
      {"smiles": "CCCCCCCCCCCCCCOc1ccc([N+](=O)[O-])cc1OCCCCCCCCCCCCCC", "melting point": "64 to 66"},
      {"smiles": "O=C1NCc2c1cccc2[N+](=O)[O-]", "melting point": "235 to 237"},
      {"smiles": "COc1ccc(C(=O)Cc2c(Cl)cncc2Cl)c2c1OCC2C", "note": "(configuration not stated)", "melting point": "99 to 104"},
      {"smiles": "Cn1nc(C(F)(F)F)cc1Oc1cccc(-c2nc(C(F)(F)C(F)(F)F)no2)n1", "melting point": "109 to 110"},
      {"smiles": "Cc1nc2c(N)nc3ccc(OCc4ccccc4)cc3c2n1CCCCNC(=O)N1CCOCC1", "melting point": "178 to 180"},
      {"smiles": "CCOCn1c(-c2ccc(Cl)cc2)c(C#N)c(Sc2ccc(Cl)c(Cl)c2)c1C(F)(F)F", "melting point": "75 to 77"},
      {"smiles": "CCC(=O)c1cc2n(c(=O)c1C)Cc1cc3ccccc3nc1-2", "melting point": "233 to 234"},
      {"smiles": "O=C(O)CCCc1cc2nc(Cl)ccc2n1S(=O)(=O)c1c(F)cccc1F", "melting point": "192 to 195"},
      {"smiles": "COc1ccc(S(=O)(=O)NCCc2ccc(CC(=O)O)cc2)cc1", "melting point": "160 to 162"},
      {"smiles": "Brc1ccc(C#CC#Cc2ccc(Br)cc2)cc1", "melting point": "264 to 265"},
      {"smiles": "O=C(O)[C@H](Cc1ccc(C(F)(F)F)cc1)[C@@H](O)c1ccc(F)cc1F", "note": "(racemic)", "melting point": "120 to 121"},
      {"smiles": "COC(=O)C[C@H](C(=O)OC)N1C(=O)[C@@H](N2C(=O)c3ccccc3C2=O)[C@H]1C=Cc1ccccc1", "melting point": "138 to 140"},
      {"smiles": "CCC(=Cc1ccccc1)C(=O)c1ccc(OC)c(Cl)c1Cl", "melting point": "127 to 130"},
      {"smiles": "O=C1c2ccccc2C(=O)N1CC(=O)N1c2ccccc2N(Cc2ccc([N+](=O)[O-])cc2)C(=O)[C@H]2CCC[C@H]21", "note": "(relative stereo)", "melting point": "224 to 225"},
      {"smiles": "O=C(O)c1ccc(-c2ccn(-c3ccc(C(F)(F)F)cc3)c2)cc1", "melting point": "315 to 317"},
      {"smiles": "CCOCc1nc2c(N)nc3ccccc3c2n1CCC(=O)N1CCOCC1", "melting point": "187 to 189"},
      {"smiles": "COc1cc2c(cc1OC)C(C(C#N)SCCOC(C)=O)=NCC2", "note": "(configuration not stated)", "melting point": 157},
      {"smiles": "CCOC(=O)c1cnc(N2CCN(Cc3ccccc3)CC2)nc1C(=O)OCC", "melting point": 66},
      {"smiles": "Cc1ccc(S(=O)(=O)N(Cc2ccccc2)N=O)cc1", "melting point": "92 to 93"},
      {"smiles": "CC1(C)CCSc2c(CC#Cc3ccc(O)cc3)cccc21", "melting point": 95},
      {"smiles": "CC(S)C(=O)NCCc1ccccc1", "note": "(configuration not stated)", "melting point": "78 to 79"},
      {"smiles": "CC(C)(C)OC(=O)N1CCC2(C=Cc3ccccc32)CC1", "melting point": 128},
      {"smiles": "CCCCc1ncc2ccccc2c1Cc1ccc(C(=O)O)cc1", "melting point": 212},
      {"smiles": "CC(C)(c1ccc(C(=O)Nc2cn3cc(Cl)ccc3n2)cc1)c1nnn[nH]1", "melting point": "266 to 267"},
      {"smiles": "CCn1cc(C(=O)O)c(=O)c2ccc(-n3cccc3)nc21", "melting point": "230 to 232"},
      {"smiles": "COCOc1ccccc1-c1nc(N)c(C#N)c(-c2cccc([N+](=O)[O-])c2)c1C", "melting point": "154 to 155"},
      {"smiles": "CCOC(=O)C=Cc1ccc(C(=O)O)cc1", "melting point": "196 to 197"},
      {"smiles": "CC(C)=CCN1Cc2c(Cl)ccc3[nH]c(=S)n(c23)C[C@@H]1C", "melting point": 160},
      {"smiles": "Clc1nc(N2CCOCC2)c2ncnc(Cl)c2n1", "melting point": "179 to 181"},
      {"smiles": "Cc1c(SCc2ccsc2)ccnc1CSc1nc2ccccc2[nH]1", "melting point": "161 to 164"},
      {"smiles": "Cc1cccc(C)c1CCCN1C(=O)c2ccccc2C1=O", "melting point": "92 to 93.5"},
      {"smiles": "O=C(O)c1c(F)cc(OCCNC(=O)C2Cc3ccccc3N2S(=O)(=O)c2ccc(-c3ccc(F)cc3Cl)cc2)cc1F", "note": "(configuration not stated)", "melting point": "75 to 80"},
      {"smiles": "CC(=O)NNc1nc(C(F)(F)F)nc(-c2ccc(F)cc2)c1-c1ccccc1", "melting point": "149 to 153"},
      {"smiles": "CC(C)(C)OC(=O)N1CCC(CCNC2(c3ccccc3Cl)C(=O)Nc3cc(Cl)c(Cl)cc32)CC1", "note": "(configuration not stated)", "melting point": "248 to 249"},
      {"smiles": "C#CCSc1nc(Cl)cc(NCc2ccc(Cl)cc2)n1", "melting point": "85 to 88"},
      {"smiles": "OCc1ccc(-c2nn(Cc3ccccc3)c3ncncc23)o1", "melting point": 165},
      {"smiles": "COc1cccc(C(CN(C)C)c2nnc3n2-c2ccc(Cl)cc2C(c2ccccc2)=NC3)c1", "note": "(configuration not stated)", "melting point": "139 to 140"},
      {"smiles": "O=C1c2ccccc2C(O)N1CCSc1ccncc1", "note": "(configuration not stated)", "melting point": 112},
      {"smiles": "O=[N+]([O-])c1ccccc1C#Cc1c(F)c(F)nc(F)c1F", "melting point": "109 to 110"},
      {"smiles": "CC(=O)NC[C@H]1CN(c2ccc(N3C[C@H]4CN(C(=O)c5cc6ccccc6[nH]5)C[C@H]4C3)c(F)c2)C(=O)O1", "melting point": 211},
      {"smiles": "COc1ccc(C2=NN(CCCCOc3ccc(C4=NNC(=O)CC4C)c(F)c3F)C(=O)C2(C)C)c2cc(C(F)(F)F)sc12", "note": "(configuration not stated)", "melting point": "137 to 138"},
      {"smiles": "CCCOc1ccc(S(=O)(=O)N2CCN(CCOC(=O)CC)CC2)cc1-c1nc2c(CCC)cn(CC)c2c(=O)[nH]1", "melting point": "126 to 128"},
      {"smiles": "COC(=O)c1nc(-c2sccc2[N+](=O)[O-])n(C)c(=O)c1OC(=O)C(C)(C)C", "melting point": "159 to 161"},
      {"smiles": "Cc1nc(N2CCN(Cc3nccc4ccccc34)C2=O)sc1C(=O)NCc1cccnc1", "melting point": "151 to 153"},
      {"smiles": "Cc1nc2ccc(Cn3ccnc3)cc2nc1Cl", "melting point": 116},
      {"smiles": "CC(=O)OCC(=O)NCc1cccc2c1C(=O)N(C1CCC(=O)NC1=O)C2=O", "note": "(configuration not stated)", "melting point": "108 to 110"},
      {"smiles": "Cn1nc(N=Cc2ccccc2)nc1NCC(O)COc1cccc(CN2CCCCC2)c1", "note": "(configuration not stated)", "melting point": "53 to 57"},
      {"smiles": "Clc1ccc2c(c1)C(c1ccccc1Cl)=NCc1nccn1-2", "melting point": "179 to 180"},
      {"smiles": "Cc1ccc(S(=O)(=O)Nc2ccc([N+](=O)[O-])cc2C)cc1", "melting point": "173 to 174"},
      {"smiles": "Cc1cccc(C)c1N(CCCc1cccnc1)C(=O)CC(C)N1C(=O)c2ccccc2C1=O", "note": "(configuration not stated)", "melting point": "169 to 171"},
      {"smiles": "Cn1nc(-c2cccc(-n3ncc4cc(C(C)(C)C)cc(F)c4c3=O)c2CO)cc(Nc2ccn(C[C@@H](O)CO)n2)c1=O", "melting point": "245 to 250"},
      {"smiles": "Nc1nc2c(ncn2C2C=CC(CO)C2)c(=S)[nH]1", "note": "(configuration not stated)", "melting point": "> 250"},
      {"smiles": "CCOC(=O)C1=C(N)NC2=C(C(=O)CCC2)C1c1cc(OC)c(OC)cc1[N+](=O)[O-]", "note": "(configuration not stated)", "melting point": 261},
      {"smiles": "N#CC1(c2cccc3ccccc23)CCC(=O)CC1", "melting point": "166 to 167"},
      {"smiles": "NC(C(=O)N(N)c1ccc2ccccc2c1)c1ccccc1", "note": "(configuration not stated)", "melting point": "176 to 178"},
      {"smiles": "O=C1c2cc(O)ccc2OCC1Oc1ccccc1", "note": "(configuration not stated)", "melting point": "142 to 146"},
      {"smiles": "CC(C)c1cccc(C(C)C)c1NC(=O)NCCN1CCN(CCSc2nc3ccccc3s2)CC1", "melting point": "147 to 149"},
      {"smiles": "CC(C)CCC(Sc1ccccc1)c1c(O)cc(-c2ccccc2)oc1=O", "note": "(configuration not stated)", "melting point": "144 to 145"},
      {"smiles": "CN1C(=O)CC[C@]2(C)c3ccc(SCc4ccccc4)cc3CC[C@@H]12", "melting point": "137 to 138"},
      {"smiles": "C=C(C)C(=O)OCCCCCCOc1ccc(C(=O)Oc2ccc(/C=C/C(=O)OC)cc2OC)cc1", "melting point": "92 to 94"},
      {"smiles": "Cc1nn(-c2ccccn2)c(C)c1S(N)(=O)=O", "melting point": "160 to 163"},
      {"smiles": "COc1ccc(Cc2nc(-c3ccc(F)cc3)c(-c3ccc(S(C)(=O)=O)cc3)o2)cc1", "melting point": "123 to 124"}
    ]}
  ]
}
